Measured values published in patent publication US9856232B1, “Dihydropyrimidinone derivatives” (KING SAUD UNIVERSITY, priority 2017, dated 2018).
Marks after values point to notes of the source that are not given here.

Legend:
Format in all cases: in vivo, Albino Wistar rats
[1] = system: Indomethacin-induced gastric mucosal lesions; experiment: Gastric lesions induced by Indomethacin; parameters: scale not given here; conditions: 50 mg/kg, i.p; 30 min before Indomethacin 30 mg/kg; mean ± SE
From the text: Albino Wistar rats of either sex, approximately the same age, weighing 150 to 200 g and fed on a diet of standard chow were used in this study. They were randomly divided into experimental groups of six rats each. […] The rats were sacrificed, and the stomachs removed and opened along the greater curvature, After washing with saline, the gastric lesions were quantified by a person unaware of the treatments. The animal study protocol was approved by the Research and Ethics Committee of the Experimental Animal Care Society, College of Pharmacy, King Saud University, Riyadh, Saudi Arabia.
Gastric lesions induced by Indomethacin: Indomethacin was suspended in 1.0% carboxymethylcellulose (CMC) in water (6 mg/mL) and administered orally to the 36 hour fasted rats at a dose of 30 mg/kg body weight. Control rats were treated similarly with an equivalent amount of vehicle. […] The animals were sacrificed 6 hours after treatment. The stomachs were excised, rinsed with normal saline and examined for ulceration. Table 3 provides the effect of compounds on Indomethacin-induced gastric mucosal lesions (mean±SE).

[2] = system: Gastric lesions induced by necrotizing agents (80% ethanol, 0.2 mol/L NaOH or 25% NaCl); experiment: Gastric lesions induced by necrotizing agents (cytoprotection); conditions: 50 mg/kg, i.p; 30 min before necrotizing agent; mean ± SE
[3] = system: malondialdehyde in stomach tissue, induced by 80% ethanol; experiment: Determination of malondialdehyde (MDA); conditions: dose 50, 80% ethanol-treated rats, mean ± SE
Description: (§1) Albino Wistar rats of either sex, approximately the same age, weighing 150 to 200 g and fed on a diet of standard chow were used in this study. They were randomly divided into experimental groups of six rats each. Compounds (N-1 to N-18) 12.5, 25, and 50 mg/kg were given orally in the anti-ulcer studies and intraperitoneally for gastric secretion evaluation. The rats were sacrificed, and the stomachs removed and opened along the greater curvature, After washing with saline, the gastric lesions were quantified by a person unaware of the treatments. The animal study protocol was approved by the Research and Ethics Committee of the Experimental Animal Care Society, College of Pharmacy, King Saud University, Riyadh, Saudi Arabia.
Determination of malondialdehyde (MDA): The animals were sacrificed 1 hour after ethanol administration. The stomachs were removed and each was homogenized in 0.15 mol/L KCl (at 4° C.) in a Potter-Elvehjem type C homogenizer to give a 10% w/v homogenate. Aliquots of homogenate 1 mL in volume were incubated at 37° C. for 3 hours in a metabolic shaker. Then 1 mL of 10% aqueous TCA was added and mixed. The mixture was then centrifuged at 800 g for 10 minutes. One milliliter of the supernatant was removed and mixed with 1 mL of 0.67% w/v thiobarbituric acid in water and placed in a boiling water bath for 10 minutes. The mixture was cooled and diluted with 1 mL distilled water. The absorbance of the solution was then read at 535 nm. The content of malondialdehyde (nmol/g wet tissue) (index of the magnitude of lipid peroxidation) was then calculated, by reference to a standard curve of malondialdehyde solution. Table 7 provides the effect of compounds on the levels of MDA, NP_SH, and total protein in stomach tissue induced by 80% ethanol (mean±SE).

[4] = system: total protein in stomach tissue, induced by 80% ethanol; experiment: Total protein in stomach tissue; conditions: dose 50, 80% ethanol-treated rats, mean ± SE
[5] = system: Hypothermic restraint stress-induced intraluminal bleeding and gastric lesion; experiment: Hypothermic restraint stress-induced ulcers; parameters: Gastric Lesion Ulcer Index: scale not given here; conditions: 50 mg/kg; hypothermic restraint 3 h; mean ± SE
[6] = system: gastric secretion in pylorus-ligated Shay rats; experiment: Pylorus-ligated rats: gastric secretion, acidity and lesion index; parameters: Ulcer Index, pylorus-ligated Shay rats: scale not given here; conditions: 50 mg/kg, i.p.; 6 h after pylorus ligation; mean ± SE
Description: as §1
Pylorus-ligated rats: Rats were fasted for 36 hours with access to water ad libitum before pylorus ligation under ether anesthesia was carried out. Care was taken not to cause bleeding or to occlude blood vessels. Compounds (N-3, N-8, N-11, and N-15) were administered intraperitoneally immediately after pylorus ligation. The rats were sacrificed at 6 hours after pylorus ligation. The stomachs were removed, the contents were collected, volumes measured, centrifuged and analyzed for tritratable acidity against […], NaOH at pH 7.0. Table 5 provides the effect of compounds on gastric secretion, acidity, and gastric lesion index in pylorus-ligated Shay rats (mean±SE).

[7] = system: gastric wall mucus in stomach tissue, change induced by 80% ethanol; experiment: Determination of gastric wall mucus (GWM); conditions: 50 mg/kg, i.p; 80% ethanol-treated rats; mean ± SE
Description: as §1
Determination of gastric wall mucus (GWM): Gastric wall mucus was determined according to the modified procedure. The glandular segment of the stomach was separated from the rumen of the stomach, weighed, and transferred immediately to 10 mL of 0.1% w/v Alcian blue solution (in […] sucrose solution buffered with […] sodium acetate at pH 5. Tissue was stained for 2 hours in Alcian blue, and excess dye was removed by two successive rinses with 10 mL of […] sucrose, firstly after 15 minutes and then after 45 minutes. Dye complexed with the gastric wall mucus was extracted with 10 ml of […] magnesium chloride which was intermittently shaken for 1 minute at 30 minute intervals for 2 hours. Four milliliters of blue extract were then vigorously shaken with an equal volume of diethyl ether. The resulting emulsion was centrifuged at 4000 r/min for 10 minutes and the absorbance of the aqueous layer was recorded at 580 nm. The quantity of Alcian blue extracted per gram of wet glandular tissue was then calculated. Table 6 provides the effect of compounds on the change in gastric wall mucus in stomach tissue induced by 80% ethanol (mean±SE).

[8] = system: gastric mucosal non-protein sulfhydryls, induced by 80% ethanol; experiment: Estimation of non-protein sulfhydryls (NP-SH); conditions: dose 50; stomach tissue, 80% ethanol-treated rats; mean ± SE
Description: as §1
Estimation of non-protein sulfhydryls (NP_SH): Gastric mucosal non-protein sulfhydryls were measured according to the method. The glandular part of the stomach was homogenized in ice-cold 0.02 mmol/L ethylenediaminetetraacetic acid (EDTA). Aliquots of 5 mL of the homogenates were mixed in 15 mL test tubes with 4 mL of distilled water and 1 mL of 50% trichloroacetic acid (TCA). The tubes were shaken intermittently for 10 minutes and centrifuged at 3000 r/min. Two milliliters of supernatant were mixed with 4 mL of 0.4 mol/L Tris buffer at pH 8.9. Then 0.1 ML of 5, 5′-dithio-bis (2-nitrobenzoic acid) (DTNB) was added and the sample was shaken. The absorbance was measured within 5 minutes of DTNB addition at 412 nm against a reagent blank.

[9] = system: Gastric lesions induced by 80% ethanol; experiment: Gastric lesions induced by ethanol (ulcer index by severity scores); conditions: Rattus norvegicus, po, Ranitidine 50 mg/kg, vs 80% EtOH group of the row; read-out: Gastric lesions induced by 80% ethanol, % change
Description: as §1
Gastric lesions induced by ethanol: Albino rats of either sex weighing between (150-200 g) are divided into groups. The animals were fasted for 24 hours with free access to water. Animals were given test drugs or standard drug. One hour later 1 mL/200 gm of 80% ethanol is administered orally to each animal. The animals were anaesthetized 1 hour latter with anesthetic ether and stomach was incised along the greater curvature and ulceration was scored. The number of ulcers and the length of each ulcer were measured. Ulcer index was calculated using severity scores. The mucosal damage was examined by means of a magnifying glass. For each stomach the mucosal damage was assessed according to the following scoring system: 0.5 redness; 1.0 spot ulcers; 1.5 hemorrhagic streaks; 2.0 ulcers<3, but≦5; 3.0 ulcers>5. Table 1 provides the effect of compounds on gastric lesions induced by 80% ethanol (mean±SE).

CNC(=C[N+](=O)[O-])NCCSCc1ccc(CN(C)C)o1 [Ranitidine, reference compound]
Ulcer Index, indomethacin-induced gastric mucosal lesions [1]: 8.50 ± 0.56
Ulcer Index, 0.2 mol/L NaOH [2]: 1.00 ± 0.36
Ulcer Index, 25% NaCl [2]: 1.16 ± 0.30
Ulcer Index, 80% EtOH [2]: 1.50 ± 0.22
MDA [3]: 1.65 ± 0.02***^b nmol/g
Total Protein [4]: 104.59 ± 1.59***^b g/L
Gastric Lesion Ulcer Index [5]: 9.66 ± 0.95
Intraluminal Bleeding Score [5]: 0.83 ± 0.30
Titratable Acidity [6]: 58.88 ± 1.85 mEg/L
Ulcer Index, pylorus-ligated Shay rats [6]: 0.50 ± 0.22
Volume of Gastric Content [6]: 4.06 ± 0.18 mL
Gastric Wall Mucus [7]: 287.24 ± 10.70***^b μg/g
NP-SH [8]: 4.24 ± 0.15**^b nmol/g
inhibition in vivo at 50 mg/kg [9]: 73.3%
